Data set [1] is described as follows: Cytotoxicity to MT4 cells, CellTiter-Glo Luminescent Cell Viability Assay. The following applies: human. The class given is cell-based. Background: ATP-based viability assays read luminescence as a measure of living cells.
Another data set relates to HIV-1 NL4-3. Kind of data set: Anti-HIV assay: HIV-1 NL4-3 replication in MT4 cells, p24 ELISA. The format is cell-based. For orientation: An ELISA detects its analyte on a solid surface through an enzyme-linked reagent.
Setting [2] is: Human immunodeficiency virus 1, NL43, MT4, 96 h, read-out: anti-HIV (NL4-3) EC90.
[3] abbreviates: read-out: anti-HIV (NL4-3) EC90, concentration that inhibited HIV-1 replication by 90%, MT4 cells, 4-day post infection, p24 ELISA.

Our source for the IC50 and EC90 values is PMC3109985 (Organic letters, 2011).

Read-outs that look alike come from different tables or passages of the source. Bounds are passed on as bounds.

A word on the IC50: it is the point on the concentration scale where inhibition reaches its midpoint. High values mean a need for much substance, low ones inhibition by little substance. Usually EC90 stands for the concentration at which the effect reaches the 90% level. For the compound `C=C(C)[C@@]12C[C@@H](COC(=O)c3ccccc3)[C@@]34OC5(O[C@@H]1[C@@H]3[C@@H]1O[C@]1(CO)[C@@H](O)[C@@]1(O)[C@H]4[C@H]([C@H](C)[C@@H]1OC(=O)c1ccccc1)[C@H](C)CCCCCC[C@H]5O)O2` [Compound 1, gnidimacrin], the concentration for half-maximal inhibition (IC50) in data set [1] is 2800 nM. The EC90 was 0.41 nM in the data set with HIV-1 NL4-3 (setting [2]) and less than 1 nM in the data set with HIV-1 NL4-3 (Human immunodeficiency virus 1, NL43, MT4, read-out: anti-HIV EC90). For `C=C(C)[C@]12C[C@@H](C)[C@@]34OC5(CCCCCCC[C@H](C)[C@H]6[C@H](C)[C@H](OC(=O)c7ccccc7)[C@@](O)([C@H](O)[C@@]7(CO)O[C@H]7[C@H]3[C@H]1O5)[C@@H]64)O2` [Compound 2, pimelea factor P2], the half-inhibitory concentration (IC50) in data set [1] was 3200 nM. For the same compound, the 90% effect concentration (EC90) in the data set on HIV-1 NL4-3 (setting [2]) is 1.4 nM. For the compound `C=C(C)[C@]12C[C@@H](COC(=O)c3ccccc3)[C@@]34OC5(CCCCCCC[C@@H](C)[C@H]6[C@H](C)C(=O)[C@@](O)([C@H](O)[C@@]7(CO)O[C@H]7[C@H]3[C@H]1O5)[C@@H]64)O2` [Compound 3, wikstroelide F], the EC90 in the data set with HIV-1 NL4-3 (setting [3]) is 1.7 nM. The same measure, in the same setting: with `C=C(C)[C@]12C[C@@H](COC(C)=O)[C@@]34O[C@]5(O[C@@H]1[C@@H]3[C@@H]1O[C@]1(CO)[C@@H](O)[C@@]1(O)[C@H]4[C@H]([C@H](C)[C@@H]1OC(=O)c1ccccc1)[C@H](C)CCCCCC[C@H]5O)O2` [Compound 4, Stelleralide A] the figure was 0.4 nM; with `C=C(C)[C@]12C[C@@H](COC(=O)c3ccccc3)[C@]34OC5(CCCCCCC[C@H](C)[C@@H]6[C@@H]3[C@]3(O[C@]6(C)OC3=O)[C@H](O)[C@@]3(CO)O[C@H]3[C@H]4[C@H]1O5)O2` [Compound 6, Stelleralide C], 91 nM. Turning to `C=C(C)[C@]12C[C@@H](C)[C@@]34O[C@](CCCCCCCCC)(O[C@@H]1[C@@H]3[C@@H]1O[C@]1(CO)[C@@H](O)[C@]1(O)C(=O)C(C)=C[C@H]14)O2` [Compound 7, simplexin], in data set [1], half-maximal inhibition (IC50) was put at 22500 nM. Also, the 90% effect concentration (EC90) with HIV-1 NL4-3 (setting [2]) worked out at 8 nM. As to `C=C(C)[C@]12C[C@@H](C)[C@@]34O[C@](/C=C/C=C/CCCCCCCCC)(O[C@@H]1[C@@H]3[C@@H]1O[C@]1(CO)[C@@H](O)[C@]1(O)C(=O)C(C)=C[C@H]14)O2` [Compound 8, huratoxin], in the data set on HIV-1 NL4-3 (setting [3]), the EC90 is 5.8 nM.

Regarding Stelleralide B [Compound 5], in the data set on HIV-1 NL4-3 (setting [3]), the EC90 came to 1.6 nM.
